Laboratory results reported in patent US12492173B2, “Herbicidal substituted N-tetrazolyl aryl carboxamides” (Bayer Aktiengesellschaft, priority 2019, dated 2025).

What was measured:
Assay type in all cases: in vivo
Hordeum murinum = assay: Pre-emergence herbicidal action, HORMU; settings: dosage 320 g/ha, scored visually after 3 weeks vs untreated controls (100% = plants have died)
Method in brief: (§1)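 Herbicidal activity is expressed in percent, scored by eye after a 3-week greenhouse period, with 0% matching untreated plants and 100% meaning death. Compounds, as wettable powders or emulsion concentrates, are applied pre-emergence to the covering soil.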

Lolium rigidum = assay: Pre-emergence herbicidal action, LOLRI; settings: dosage 320 g/ha, scored visually after 3 weeks vs untreated controls (100% = plants have died)
Text: 1. Pre-Emergence Herbicidal Action Against Harmful Plants Seeds of monocotyledonous and dicotyledonous weed plants and crop plants are laid out in sandy loam soil in wood-fiber pots and covered with soil. The compounds of the invention, formulated in the form of wettable powders (WP) or as emulsion concentrates (EC), are then applied to the surface of the covering soil in the form of an aqueous suspension or emulsion at a water application rate equating to 600 to 800 l/ha, with addition of 0.2% wetting agent. After the treatment, the pots are placed in a greenhouse and kept under good growth conditions for the trial plants. The damage to the test plants is scored visually after a test period of 3 weeks by comparison with untreated controls (herbicidal activity in percent (%): 100% activity=the plants have died, 0% activity=like control plants). […] The tables below illustrate, in an exemplary manner, the […] herbicidal action of the compounds according to the invention, the herbicidal activity being stated in percent. [table] In the experiments that follow, herbicidal action of numerous inventive compounds and the known compounds that are structurally closest from D1 (WO 2012/028579 A1) and D2 (WO 2018/202535 A1) were compared under the above-specified conditions by the pre-emergence and post-emergence method. The example numbers given in the tables relate to the compounds disclosed in the respective documents. In addition to the compounds disclosed in D1 and D2, the following compounds V-1 to V-14 that are encompassed by D1 or D2 but are not compounds specified therein were used in the comparative experiments: • V-1: 2-(methylsulfanyl)-3-(methylsulfinyl)-N-(1-methyl-1H-tetrazol-5-yl)-4-(trifluoromethyl)benzamide • V-2: 2-(methylsulfanyl)-3-(methylsulfonyl)-N-(1-methyl-1H-tetrazol-5-yl)-4-(trifluoromethyl)benzamide • V-3: 2,3-bis(ethylsulfanyl)-N-(1-methyl-1H-tetrazol-5-yl)-4-(trifluoromethyl)benzamide • V-4: 2-chloro-3-(ethylsulfanyl)-N-(1-methyl-1H-tetrazol-5-yl)-4-(trifluoromethyl)benzamide • V-5: 2-chloro-4-iodo-3-(methylsulfanyl)-N-(1-methyl-1H-tetrazol-5-yl)benzamide • V-6: 2-chloro-4-iodo-3-(methylsulfinyl)-N-(1-methyl-1H-tetrazol-5-yl)benzamide • V-7: 2-chloro-4-iodo-3-(methylsulfonyl)-N-(1-methyl-1H-tetrazol-5-yl)benzamide • V-8: 2-bromo-3-(methylsulfanyl)-N-(1-methyl-1H-tetrazol-5-yl)-4-(trifluoromethyl)benzamide • V-9: 2-bromo-3-(methylsulfinyl)-N-(1-methyl-1H-tetrazol-5-yl)-4-(trifluoromethyl)benzamide • V-10: 2-bromo-3-(methylsulfonyl)-N-(1-methyl-1H-tetrazol-5-yl)-4-(trifluoromethyl)benzamide • V-11: 2-bromo-3-(ethylsulfanyl)-N-(1-methyl-1H-tetrazol-5-yl)-4-(trifluoromethyl)benzamide • V-12: 2-bromo-3-(ethylsulfinyl)-N-(1-methyl-1H-tetrazol-5-yl)-4-(trifluoromethyl)benzamide • V-13: 2-bromo-3-(ethylsulfonyl)-N-(1-methyl-1-1H-tetrazol-5-yl)-4-(trifluoromethyl)benzamide • V-14: 2-cyclopropyl-3-(ethylsulfanyl)-N-(1-methyl-1H-tetrazol-5-yl)-4-(trifluoromethyl)benzamide Herbicidal Pre-Emergence Action: […]

Matricaria inodora = assay: Post-emergence herbicidal action, MATIN; parameters: key: % herbicidal action vs untreated; 100 = plants died, 0 = like control; settings: post-emergence, dosage 80 g/ha
Method in brief: (§2)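 Sandy loam, greenhouse; one-leaf stage (2–3 wk after sowing); foliar spray of WP or EC, 600–800 l/ha water + 0.2% wetter; visual rating at ~3 wk vs untreated, % effect.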

Amaranthus retroflexus = assay: Pre-emergence herbicidal action, AMARE; settings: dosage 320 g/ha, scored visually after 3 weeks vs untreated controls (100% = plants have died)
Method in brief: as §1

Polygonum convolvulus = assay: Post-emergence herbicidal action, POLCO; settings: post-emergence, dosage 80 g/ha
Method in brief: as §2

Stellaria media = assay: Post-emergence herbicidal action, STEME; parameters: key: % herbicidal action vs untreated; 100 = plants died, 0 = like control; settings: post-emergence, dosage 80 g/ha
Method in brief: as §2

Cn1nnnc1NC(=O)c1ccc(C(F)(F)F)c(CSCC2CC2)c1Cl [Example 1-314]
100%: herbicidal activity HORMU (Hordeum murinum) | herbicidal activity LOLRI (Lolium rigidum) | herbicidal action MATIN (Matricaria inodora) | herbicidal activity AMARE (Amaranthus retroflexus) | herbicidal action POLCO (Polygonum convolvulus) | herbicidal action STEME (Stellaria media)
